Measurements taken from PubChem BioAssay (NCI).
Where “and” joins values, the source holds several entries; their conditions need not be identical. Equal entries are not always repeated.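 Dose response: 5 concentrations. Exposure: 48 h. Format: 96-well plates. Endpoint: linear interpolation; highest concentration if not reached. GI50 marks 50% less growth. TGI is the concentration that stops growth completely.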

Experiments:
Assay in all cases: DTP human tumour cell line panel, 48 h
[1] = system: SK-MEL-28 melanoma
[2] = system: CAKI-1 renal
[3] = system: EKVX NSCLC
[4] = system: SF-539 CNS
[5] = system: SR leukemia
[6] = system: HCC-2998 colon
[7] = system: OVCAR-8 ovarian
[8] = system: MDA-MB-435
[9] = system: UACC-257 melanoma
[10] = system: NCI-H460 lung

Row | SMILES | TGI [1] [µM] | TGI [2] [µM] | TGI [3] | TGI [4] [µM] | TGI [5] [µM] | TGI [6] [µM] | TGI [7] [µM] | TGI [8] [µM] | TGI [9] [µM] | TGI [10] [µM] | GI50 [1] [µM] | GI50 [2] [µM] | GI50 [3] [µM] | GI50 [4] [µM] | GI50 [5] [µM] | GI50 [6] [µM] | GI50 [7] [µM] | GI50 [8] [µM] | GI50 [9] [µM] | GI50 [10] [µM]
1 | CCCCSc1n/c(=C\c2ccc(N(C)C)cc2)c2nnnn12 | > 100 | > 100 | > 100 µM | > 100 | > 100 | > 100 | > 100 | > 100 | > 100 | > 100 | – | – | – | – | – | – | – | – | – | –
2 | COc1cc2ccnc3c2c(c1O)N(C)C=C3 | > 66.2 | 20.6 | 33.4 µM | – | > 100 | 48.2 | > 46.8 | > 86.5 | 32.5 | > 66 | – | – | – | – | – | – | – | – | – | –
3 | CSC1SCC2C(=O)N(C)C3(CC3C)C(=O)OCC(NC(=O)c3nc4ccccc4cc3O)C(=O)NC(C)C(=O)N(C)C1C(=O)N(C)C1(CC1C)C(=O)OCC(NC(=O)c1nc3ccccc3cc1O)C(=O)NC(C)C(=O)N2C (stereo not given) | < 0.0001 | 0.0135 | 0.648 µM and 0.0992 µM | < 0.0001 | < 0.0001 | < 0.0001 | – | < 0.0001 | < 0.0001 | 0.875 | – | – | – | – | – | – | – | – | – | –
4 | O=C(NCCO)c1ccc(Cl)cc1 | > 100 | > 100 | > 100 µM | – | > 100 | > 100 | > 100 | > 100 | > 100 | > 100 | – | – | – | – | – | – | – | – | – | –
5 | COC(=O)c1cncc2c1CC1C3(C(=O)OC)C=NC(C4C(CO)=CCC43)C21C (stereo not given) | > 100 | > 100 | > 100 µM | > 100 | > 100 | > 100 | > 100 | > 100 | > 100 | > 100 | – | – | – | – | – | – | – | – | – | –
6 | COc1ccc2c(c1)CCc1c-2n(CCN(C)C)c2ccc(OC)cc12 | 33.6 | > 100 | > 100 µM | – | > 100 | > 100 | 51 | 32.6 | > 100 | > 100 | – | – | – | – | – | – | – | – | – | –
7 | COC(=O)[C@@H]1N2C(=S)N(c3ccccc3)C(=O)[C@H]2SC1(C)C | > 100 | > 100 | > 100 µM | > 100 | > 100 | > 100 | > 100 | > 100 | > 100 | > 100 | – | – | – | – | – | – | – | – | – | –
8 | CCN(CC)CCCNc1ccc2nnn3c4ccc(O)cc4c(=O)c1c23 | 32 | 17 | 29.8 µM | 22.8 | 21.8 | 23.4 | 12.9 | 22.1 | 32.6 | 9.13 | – | – | – | – | – | – | – | – | – | –
9 | CC(C)(C)N1Cc2ccccc2/C(=C/Sc2ccccc2)C1=O | 33.7 | 30.7 | 34.2 µM | 24.3 | > 39.4 | 34.4 | 22.3 | 20.1 | 31.2 | 30 | – | – | – | – | – | – | – | – | – | –
10 | COC(OC)C(O)C1OC=CC1n1cnc2c(N)ncnc21 (stereo not given) | > 100 | > 100 | > 100 µM | > 100 | > 100 | > 100 | – | > 100 | > 100 | > 100 | – | – | – | – | – | – | – | – | – | –
11 | Cc1ccc2c(c1)OC1Nc3ccccc3C1=C2O (stereo not given) | > 100 | 97.5 | 86.9 µM | 44.4 | > 100 | 33.9 | > 100 | 95.9 | 69.3 | 64.3 | – | – | – | – | – | – | – | – | – | –
12 | COC(=O)C(COC(=O)/C=C/c1ccc(OC(C)=O)c(OC(C)=O)c1)OC(=O)/C=C/c1ccc(OC(C)=O)c(OC(C)=O)c1 (stereo not given) | 30.9 | 43.1 | 36.9 µM | 24.2 | 11.1 | 43.4 | 26.4 | 23.9 | 29.9 | 57.2 | – | – | – | – | – | – | – | – | – | –
13 | CCOC(=O)C1=C(C)NC(=S)NC1c1cccc(O)c1 (stereo not given) | > 100 | > 100 | > 100 µM | > 100 | > 95.6 | > 90.4 | > 100 | 38 | > 100 | > 100 | – | – | – | – | – | – | – | – | – | –
14 | COc1cccc(-c2nc3sccn3c2-c2ccnc(NCCNC(=O)Nc3cccc(C(F)(F)F)c3)n2)c1 | 26.2 | 10.3 | 59.6 µM | 17.1 | 29.7 | 18.7 | 9.79 | 12.3 | 16.5 | 14.4 | 5.36 | 3.5 | 3.55 | 3.83 | 3.75 | 3.75 | 3.28 | 2.95 | 4.34 | 2.94
15 | CSCCC(NC(=O)OC(C)(C)C)C(=O)NCCNc1ccc(NCCNC(=O)C(CCSC)NC(=O)OC(C)(C)C)c2c1C(=O)c1ccccc1C2=O (stereo not given) | 3.69 | > 41.5 | > 27.7 µM | 6.96 | 11.3 | 5.99 | 5.4 | 7.49 | 12.1 | 23.1 | – | – | – | – | – | – | – | – | – | –
16 | CN1CC(c2ccccc2)N(CCCCN2CC(c3ccccc3)N(C)CC2c2ccccc2)CC1c1ccccc1 (stereo not given) | > 100 | > 100 | > 100 µM | > 100 | > 100 | > 100 | > 100 | > 100 | 42.6 | > 100 | – | – | – | – | – | – | – | – | – | –
